{"source": "patent US20230085307A1", "about": "“PYRIDAZINONE COMPOUND AND HERBICIDE” (NISSAN CHEMICAL CORPORATION, priority 2019, published 2023)", "key": {"windgrass [1]": {"test_system": "windgrass", "experiment": "Test Example 4: herbicidal effect by soil treatment (Table 19, symbol L)", "type": "in vivo, windgrass (Apera spica-venti)", "settings": "amount of applied herbicide 320 g/ha", "procedure,_shortened": "(§1)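 Emulsion of test compound, water-diluted to predetermined amount, sprayed on soil after sowing (seed depth ~1.5 cm, sterilized diluvial soil). Greenhouse, 25–30° C. Effect graded at three weeks post-spray.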"}, "Italian ryegrass [2]": {"test_system": "Italian ryegrass", "experiment": "Test Example 5: herbicidal effect by foliage application, plastic box (Table 20, symbol K)", "type": "in vivo, Italian ryegrass (Lolium multiflorum)", "settings": "foliage application, 320 g/ha, evaluated three weeks after application", "procedure,_shortened": "(§2)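 Post-emergence foliar test in sterilized diluvial soil. Compound applied as water-diluted emulsion at a predetermined rate to 14-day-old plants; evaluation at three weeks.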"}, "green foxtail [3]": {"test_system": "green foxtail", "experiment": "Test Example 4: herbicidal effect by soil treatment (Table 19, symbol G)", "type": "in vivo, green foxtail (Setaria viridis)", "settings": "amount of applied herbicide 320 g/ha", "procedure,_shortened": "as §1"}, "persian speedwell [4]": {"test_system": "persian speedwell", "experiment": "Test Example 4: herbicidal effect by soil treatment (Table 19, symbol R)", "type": "in vivo, Persian speedwell (Veronica persica)", "settings": "amount of applied herbicide 320 g/ha", "procedure,_shortened": "as §1"}, "barnyard grass [5]": {"test_system": "barnyard grass", "experiment": "Test Example 3: herbicidal effect by foliage application, Wagner pot (Table 18, symbol H)", "type": "in vivo, barnyard grass (Echinochloa crus-galli)", "settings": "amount of applied herbicide 320 g/ha", "procedure,_shortened": "(§3)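 Plants were sown in alluvial soil held under 0.1–0.5 cm standing water and grown 14 days in a greenhouse at 25–30 °C. An emulsifiable formulation, water-diluted to the set dose, was then sprayed onto the foliage, and effects were scored three weeks later using previously defined criteria.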"}, "southern crabgrass [6]": {"test_system": "southern crabgrass", "experiment": "Test Example 4: herbicidal effect by soil treatment (Table 19, symbol F)", "type": "in vivo, southern crabgrass (Digitaria ciliaris)", "settings": "amount of applied herbicide 320 g/ha", "procedure,_shortened": "as §1"}, "windgrass [7]": {"test_system": "windgrass", "experiment": "Test Example 5: herbicidal effect by foliage application, plastic box (Table 20, symbol L)", "type": "in vivo, windgrass (Apera spica-venti)", "settings": "foliage application, 320 g/ha, evaluated three weeks after application", "procedure,_shortened": "as §2"}, "velvetleaf [8]": {"test_system": "velvetleaf", "experiment": "Test Example 4: herbicidal effect by soil treatment (Table 19, symbol M)", "type": "in vivo, velvetleaf (Abutilon theophrasti)", "settings": "amount of applied herbicide 320 g/ha", "procedure,_shortened": "as §1"}, "Chinese sprangletop": {"test_system": "Chinese sprangletop", "experiment": "Test Example 3: herbicidal effect by foliage application, Wagner pot (Table 18, symbol D)", "type": "in vivo, chinese sprangletop (Leptochloa chinensis)", "settings": "amount of applied herbicide 320 g/ha", "procedure,_shortened": "as §3"}, "blackgrass": {"test_system": "blackgrass", "experiment": "Test Example 5: herbicidal effect by foliage application, plastic box (Table 20, symbol J)", "type": "in vivo, blackgrass (Alopecurus myosuroides)", "settings": "foliage application, 320 g/ha, evaluated three weeks after application", "procedure,_shortened": "as §2"}, "redroot pigweed [9]": {"test_system": "redroot pigweed", "experiment": "Test Example 5: herbicidal effect by foliage application, plastic box (Table 20, symbol N)", "type": "in vivo, redroot pigweed (Amaranthus retroflexus)", "settings": "foliage application, 320 g/ha, evaluated three weeks after application", "procedure,_shortened": "as §2"}, "chickweed [10]": {"test_system": "chickweed", "experiment": "Test Example 5: herbicidal effect by foliage application, plastic box (Table 20, symbol P)", "type": "in vivo, common chickweed (Stellaria media)", "settings": "foliage application, 320 g/ha, evaluated three weeks after application", "procedure,_shortened": "as §2"}, "rice flat sedge": {"test_system": "rice flat sedge", "experiment": "Test Example 3: herbicidal effect by foliage application, Wagner pot (Table 18, symbol E)", "type": "in vivo, rice flat sedge (Cyperus iria)", "settings": "amount of applied herbicide 320 g/ha", "procedure,_shortened": "as §3"}, "southern crabgrass [11]": {"test_system": "southern crabgrass", "experiment": "Test Example 5: herbicidal effect by foliage application, plastic box (Table 20, symbol F)", "type": "in vivo, southern crabgrass (Digitaria ciliaris)", "settings": "foliage application, 320 g/ha, evaluated three weeks after application", "procedure,_shortened": "as §2"}, "chickweed [12]": {"test_system": "chickweed", "experiment": "Test Example 4: herbicidal effect by soil treatment (Table 19, symbol P)", "type": "in vivo, common chickweed (Stellaria media)", "settings": "amount of applied herbicide 320 g/ha", "procedure,_shortened": "as §1"}, "wild oat [13]": {"test_system": "wild oat", "experiment": "Test Example 5: herbicidal effect by foliage application, plastic box (Table 20, symbol I)", "type": "in vivo, wild oat (Avena fatua)", "settings": "foliage application, 320 g/ha, evaluated three weeks after application", "procedure,_shortened": "as §2"}, "redroot pigweed [14]": {"test_system": "redroot pigweed", "experiment": "Test Example 4: herbicidal effect by soil treatment (Table 19, symbol N)", "type": "in vivo, redroot pigweed (Amaranthus retroflexus)", "settings": "amount of applied herbicide 320 g/ha", "procedure,_shortened": "as §1"}, "barnyard grass [15]": {"test_system": "barnyard grass", "experiment": "Test Example 4: herbicidal effect by soil treatment (Table 19, symbol H)", "type": "in vivo, barnyard grass (Echinochloa crus-galli)", "settings": "amount of applied herbicide 320 g/ha", "procedure,_shortened": "as §1"}, "wild oat [16]": {"test_system": "wild oat", "experiment": "Test Example 4: herbicidal effect by soil treatment (Table 19, symbol I)", "type": "in vivo, wild oat (Avena fatua)", "settings": "amount of applied herbicide 320 g/ha", "procedure,_shortened": "as §1"}, "persian speedwell [17]": {"test_system": "persian speedwell", "experiment": "Test Example 5: herbicidal effect by foliage application, plastic box (Table 20, symbol R)", "type": "in vivo, Persian speedwell (Veronica persica)", "settings": "foliage application, 320 g/ha, evaluated three weeks after application", "procedure,_shortened": "as §2"}, "lambsquarters [18]": {"test_system": "lambsquarters", "experiment": "Test Example 4: herbicidal effect by soil treatment (Table 19, symbol O)", "type": "in vivo, lambsquarters (Chenopodium album)", "settings": "amount of applied herbicide 320 g/ha", "procedure,_shortened": "as §1"}, "barnyard grass [19]": {"test_system": "barnyard grass", "experiment": "Test Example 5: herbicidal effect by foliage application, plastic box (Table 20, symbol H)", "type": "in vivo, barnyard grass (Echinochloa crus-galli)", "settings": "foliage application, 320 g/ha, evaluated three weeks after application", "procedure,_shortened": "as §2"}, "velvetleaf [20]": {"test_system": "velvetleaf", "experiment": "Test Example 5: herbicidal effect by foliage application, plastic box (Table 20, symbol M)", "type": "in vivo, velvetleaf (Abutilon theophrasti)", "settings": "foliage application, 320 g/ha, evaluated three weeks after application", "procedure,_shortened": "as §2"}, "lambsquarters [21]": {"test_system": "lambsquarters", "experiment": "Test Example 5: herbicidal effect by foliage application, plastic box (Table 20, symbol O)", "type": "in vivo, lambsquarters (Chenopodium album)", "settings": "foliage application, 320 g/ha, evaluated three weeks after application", "procedure,_shortened": "as §2"}, "green foxtail [22]": {"test_system": "green foxtail", "experiment": "Test Example 5: herbicidal effect by foliage application, plastic box (Table 20, symbol G)", "type": "in vivo, green foxtail (Setaria viridis)", "settings": "foliage application, 320 g/ha, evaluated three weeks after application", "procedure,_shortened": "as §2"}, "Italian ryegrass [23]": {"test_system": "Italian ryegrass", "experiment": "Test Example 4: herbicidal effect by soil treatment (Table 19, symbol K)", "type": "in vivo, Italian ryegrass (Lolium multiflorum)", "settings": "amount of applied herbicide 320 g/ha", "procedure,_shortened": "as §1"}}}
{"smiles": "Cc1nn(C)c(=O)c(-c2c(-c3ccccc3C(F)(F)F)sc3ccc(F)cc23)c1O", "note": "[2-229]", "values": [{"measurement": "herbicidal effect on L: windgrass", "setting": "windgrass [1]", "value": "0 (Herbicidal rate of 5% or less (almost no effect))"}, {"measurement": "herbicidal effect on K: Italian ryegrass (criteria 0-5)", "setting": "Italian ryegrass [2]", "value": "4 (Herbicidal rate of 70% or more and less than 90%)"}, {"measurement": "herbicidal effect on G: green foxtail", "setting": "green foxtail [3]", "value": "3 (Herbicidal rate of 40% or more and less than 70%)"}, {"measurement": "herbicidal effect on R: persian speedwell", "setting": "persian speedwell [4]", "value": "0 (Herbicidal rate of 5% or less (almost no effect))"}, {"measurement": "herbicidal effect on H: barnyard grass", "setting": "barnyard grass [5]", "value": "4 (Herbicidal rate of 70% or more and less than 90%)"}, {"measurement": "herbicidal effect on F: southern crabgrass", "setting": "southern crabgrass [6]", "value": "3 (Herbicidal rate of 40% or more and less than 70%)"}, {"measurement": "herbicidal effect on L: windgrass (criteria 0-5)", "setting": "windgrass [7]", "value": "4 (Herbicidal rate of 70% or more and less than 90%)"}, {"measurement": "herbicidal effect on M: velvetleaf", "setting": "velvetleaf [8]", "value": "1 (Herbicidal rate of 5% or more and less than 20%)"}, {"measurement": "herbicidal effect on D: Chinese sprangletop", "setting": "Chinese sprangletop", "value": "3 (Herbicidal rate of 40% or more and less than 70%)"}, {"measurement": "herbicidal effect on J: blackgrass (criteria 0-5)", "setting": "blackgrass", "value": "3 (Herbicidal rate of 40% or more and less than 70%)"}, {"measurement": "herbicidal effect on N: redroot pigweed (criteria 0-5)", "setting": "redroot pigweed [9]", "value": "4 (Herbicidal rate of 70% or more and less than 90%)"}, {"measurement": "herbicidal effect on P: chickweed (criteria 0-5)", "setting": "chickweed [10]", "value": "5 (Herbicidal rate of 90% or more (almost completely withered))"}, {"measurement": "herbicidal effect on E: rice flat sedge", "setting": "rice flat sedge", "value": "4 (Herbicidal rate of 70% or more and less than 90%)"}, {"measurement": "herbicidal effect on F: southern crabgrass (criteria 0-5)", "setting": "southern crabgrass [11]", "value": "3 (Herbicidal rate of 40% or more and less than 70%)"}, {"measurement": "herbicidal effect on P: chickweed", "setting": "chickweed [12]", "value": "1 (Herbicidal rate of 5% or more and less than 20%)"}, {"measurement": "herbicidal effect on I: wild oat (criteria 0-5)", "setting": "wild oat [13]", "value": "1 (Herbicidal rate of 5% or more and less than 20%)"}, {"measurement": "herbicidal effect on N: redroot pigweed", "setting": "redroot pigweed [14]", "value": "2 (Herbicidal rate of 20% or more and less than 40%)"}, {"measurement": "herbicidal effect on H: barnyard grass", "setting": "barnyard grass [15]", "value": "1 (Herbicidal rate of 5% or more and less than 20%)"}, {"measurement": "herbicidal effect on I: wild oat", "setting": "wild oat [16]", "value": "0 (Herbicidal rate of 5% or less (almost no effect))"}, {"measurement": "herbicidal effect on R: persian speedwell (criteria 0-5)", "setting": "persian speedwell [17]", "value": "5 (Herbicidal rate of 90% or more (almost completely withered))"}, {"measurement": "herbicidal effect on O: lambsquarters", "setting": "lambsquarters [18]", "value": "3 (Herbicidal rate of 40% or more and less than 70%)"}, {"measurement": "herbicidal effect on H: barnyard grass (criteria 0-5)", "setting": "barnyard grass [19]", "value": "3 (Herbicidal rate of 40% or more and less than 70%)"}, {"measurement": "herbicidal effect on M: velvetleaf (criteria 0-5)", "setting": "velvetleaf [20]", "value": "4 (Herbicidal rate of 70% or more and less than 90%)"}, {"measurement": "herbicidal effect on O: lambsquarters (criteria 0-5)", "setting": "lambsquarters [21]", "value": "4 (Herbicidal rate of 70% or more and less than 90%)"}, {"measurement": "herbicidal effect on G: green foxtail (criteria 0-5)", "setting": "green foxtail [22]", "value": "5 (Herbicidal rate of 90% or more (almost completely withered))"}, {"measurement": "herbicidal effect on K: Italian ryegrass", "setting": "Italian ryegrass [23]", "value": "2 (Herbicidal rate of 20% or more and less than 40%)"}]}
